Legend:
[1] = mn = molality of the nth substance listed, in mol/kg; details: 101 kPa, Liquid, Vibrating tube method
[2] = 101.33 kPa, Liquid, Vibrating tube method
[3] = refractive index (Na D-line) (dimensionless); details: 101.33 kPa, Liquid, Standard Abbe refractometry

CCCCCCn1cc[n+](C)c1.COS(=O)(=O)[O-] [1-hexyl-3-methylimidazolium methyl sulfate] + O
mass density [kg/m3], [1]
Details	298.15 K	308.15 K	318.15 K	328.15 K
m1 = 0.0118	997.55	994.47	990.58	985.32
m1 = 0.0314	998.37	995.17	991.17	985.78
m1 = 0.0497	999.1	995.8	991.69	986.21
m1 = 0.076	1000.09	996.65	992.4	986.8
m1 = 0.0937	1000.68	997.19	992.86	987.21
m1 = 0.154	1002.59	998.9	994.35	988.41
m1 = 0.3076	1006.3	1002.6	997.53	990.95
m1 = 0.5023	1010.81	1006.62	1001.55	994.25
m1 = 0.6255	1013.9	1009.13	1003.9	996.3
m1 = 0.7024	1015.42	1010.54	1005.28	997.49
m1 = 0.8838	1020.02	1014	1008.57	1000.18
m1 = 1.071	1024.02	1017.44	1012.23	1002.98
m1 = 1.284	1028.91	1021.24	1015.5	1005.89
m1 = 1.544	1034.22	1026.15	1020.01	1009

CCCCCCn1cc[n+](C)c1.CCOS(=O)(=O)[O-] [1-hexyl-3-methylimidazolium ethyl sulfate]
Details	mass density, 298.15 K [kg/m3]	mass density, 308.15 K [kg/m3]	mass density, 318.15 K [kg/m3]	mass density, 328.15 K [kg/m3]	refractive index, 298.15 K	refractive index, 308.15 K	refractive index, 318.15 K	refractive index, 328.15 K
[2]	1137.54	1130.74	1124.29	1117.81	–	–	–	–
[3]	–	–	–	–	1.4677	1.4636	1.4596	1.4566

CCn1cc[n+](C)c1.COS(=O)(=O)[O-] [1-ethyl-3-methylimidazolium methylsulfate] + O
mass density [kg/m3], [1]
Details	298.15 K	308.15 K	318.15 K	328.15 K
m1 = 0.0166	998.28	995.1	991.05	985.78
m1 = 0.0244	998.78	995.59	991.42	986.12
m1 = 0.0302	999.18	995.94	991.68	986.36
m1 = 0.0372	999.58	996.31	992	986.62
m1 = 0.0702	1001.29	997.81	993.46	987.97
m1 = 0.077	1001.59	998.05	993.68	988.23
m1 = 0.0961	1002.25	998.74	994.43	988.9
m1 = 0.1191	1003.09	999.51	995.31	989.75
m1 = 0.1346	1003.69	999.99	995.93	990.36
m1 = 0.1823	1005.3	1002.08	997.93	992.14
m1 = 0.3343	1011.4	1008.04	1003.88	997.71
m1 = 0.4226	1014.99	1011.67	1007.18	1000.86
m1 = 0.5486	1020.29	1017.02	1011.85	1005.32
m1 = 0.573	998.28	1018.1	1012.71	1006.1

CCCCCCn1cc[n+](C)c1.CCOS(=O)(=O)[O-] [1-hexyl-3-methylimidazolium ethyl sulfate] + O
mass density [kg/m3], [1]
Details	298.15 K	308.15 K	318.15 K	328.15 K
m1 = 0.0113	997.55	994.52	990.63	985.41
m1 = 0.0347	998.58	995.5	991.48	986.2
m1 = 0.0419	998.9	995.8	991.73	986.44
m1 = 0.0614	999.73	996.6	992.41	987.07
m1 = 0.0677	1000	996.84	992.62	987.28
m1 = 0.1085	1001.65	998.38	994	988.57
m1 = 0.2177	1005.67	1002.07	997.31	991.8
m1 = 0.3501	1010	1005.78	1000.86	995.29
m1 = 0.433	1012.3	1007.9	1002.92	997.21
m1 = 0.5618	1015.56	1010.89	1005.91	1000.07
m1 = 0.7474	1019.59	1014.5	1009.79	1003.7
m1 = 0.8741	1021.74	1016.59	1012.03	1005.94
m1 = 1.17	1025.65	1020.79	1016.28	1010.91
m1 = 1.343	1027.8	1023.36	1018.31	1013.65

CCn1cc[n+](C)c1.COS(=O)(=O)[O-] [1-ethyl-3-methylimidazolium methylsulfate]
Details	mass density, 298.15 K [kg/m3]	mass density, 308.15 K [kg/m3]	mass density, 318.15 K [kg/m3]	mass density, 328.15 K [kg/m3]	refractive index, 298.15 K	refractive index, 308.15 K	refractive index, 318.15 K	refractive index, 328.15 K
[2]	1361.2	1333.2	1319.2	1300.3	–	–	–	–
[3]	–	–	–	–	1.4822	1.4782	1.4759	1.4704

CCCCCCn1cc[n+](C)c1.COS(=O)(=O)[O-] [1-hexyl-3-methylimidazolium methyl sulfate]
Details	mass density, 298.15 K [kg/m3]	mass density, 308.15 K [kg/m3]	mass density, 318.15 K [kg/m3]	mass density, 328.15 K [kg/m3]	refractive index, 298.15 K	refractive index, 308.15 K	refractive index, 318.15 K	refractive index, 328.15 K
[2]	1156.93	1150.32	1143.84	1137.38	–	–	–	–
[3]	–	–	–	–	1.4733	1.4708	1.4683	1.4654

From the NIST ThermoML archive (doi:10.1016/j.fluid.2011.01.001)
